According to patent US20260158102A1, “CYCLIC PEPTIDE DERIVATIVE COMPOSITION FOR TREATING OR PREVENTING NEUROPATHIC PAIN AND/OR INFLAMMATORY PAIN” (DKS Co. Ltd., priority 2022, published 2026):

System: rat carrageenan-induced paw edema model
Assay: Mechanical hyperalgesia (Randall-Selitto pain threshold) in rat carrageenan-induced paw edema model
Type: in vivo
Conditions: for Pain threshold (mmHg) 2 hour: 2 hours after carrageenan inflammation, control 31.6 ± 1.4
Protocol: On the day before the administration of the phlogistic agent, the pain threshold of each individual by the Randall-Selitto method was measured using an Analgesy meter.
On the day before the use of the phlogistic agent, a required amount of carrageenan (Tokyo Chemical Industry Co., Ltd.) was weighed, ground using an agate mortar and pestle, and suspended while adding physiological saline little by little, thereby preparing a 1 w/v % carrageenan physiological saline solution. After preparation, the solution was stored in a refrigerator and used the next day.
The test substance was intravenously administered, and after 5 minutes, 0.1 mL of a phlogistic agent (1 w/v % carrageenan physiological saline solution) was subcutaneously administered to the right hind paw of the animal to induce inflammation.
2, 3, 4, and 5 hours after inflammation, the pain threshold was measured by the Randall-Selitto method using an Analgesy meter.
Dunnett's multiple comparison test was performed between the control group and the test substance group at each measurement time point.

CC[C@@]1(C)Oc2cc(ccc2O)C[C@H](N(C)C)C(=O)N[C@@H](C(C)C)C(=O)N[C@@H]1C(=O)N[C@@H](CCC(=O)O)C(=O)O [Compound 23]
Pain threshold (mmHg) 2 hour (1 mg/kg i.v., mean ± SE, N=7): 31.6 ± 2.2 mmHg | Pain threshold (mmHg) 4 hour (1 mg/kg i.v., 4 hours after carrageenan inflammation, mean ± SE, N=7, control 30.3 ± 0.7): 34.0 ± 1.3 mmHg | Pain threshold (mmHg) 5 hour (1 mg/kg i.v., 5 hours after carrageenan inflammation, mean ± SE, N=7, control 28.3 ± 1.9): 30.1 ± 1.0 mmHg | Pain threshold (mmHg) 2 hour (5 mg/kg i.v., mean ± SE, N=7): 34.9 ± 1.7 mmHg | Pain threshold (mmHg) 2 hour (25 mg/kg i.v., mean ± SE, N=7): 36.7 ± 2.4 mmHg | Effect on inflammatory pain (pain threshold by the Randall-Selitto method) (rat carrageenan-induced paw edema model, i.v. 1-25 mg/kg, overall conclusion): suppressing effect on inflammatory pain
